From PMC2542349, “Pharmacokinetic and metabolic effects of American ginseng (Panax quinquefolius) in healthy volunteers receiving the HIV protease inhibitor indinavir” (BMC Complementary and Alternative Medicine, 2008)
“And” between values parts separate entries of the source, which are not always exact repeats. Identical values can stand only once. Like-named read-outs stand apart in the source and are kept apart here.

How the values were obtained:
[1] = system: healthy volunteers; conditions: cited from earlier work
[2] = system: healthy volunteers; assay: Hyperinsulinemic euglycemic clamp (glucose utilization M, insulin sensitivity M/I); format: in vivo, human
Method: Peripheral sensitivity to glucose was assessed by the hyperinsulinemic euglycemic clamp technique. Subjects were admitted to the GCRC in the afternoon prior to the clamp procedure and maintained on a eucaloric diet (50% carbohydrate, 30% fat, and 20% protein). After an overnight fast, an intravenous catheter was placed in the antecubital vein for infusion of glucose and insulin. A second catheter for blood sampling was inserted in a dorsal vein of the hand in a retrograde fashion. The hand was placed into a 50°C warming box to "arterialize" the samples [20]. After baseline blood samples were obtained, a primed, continuous infusion of regular insulin (40 mU/m^2/min) was started, followed by a constant infusion of 20% dextrose at a variable rate, based on 5-minute measurements of blood glucose, in order to maintain blood glucose concentrations at each subject's baseline level ± 5%. Infusion continued for a total of 180 minutes.
Glucose utilization (M) was calculated as the average glucose infusion rate (milligrams of glucose/kilograms of FFM/minute) during the last 60 minutes of the infusion (i.e. steady state portion). FFM was derived from the baseline evaluation by dual energy X-ray absorptiometry (DXA).
During the final 60 minutes of the insulin clamp procedure, samples were obtained at 10 minutes intervals to determine insulin concentrations. M divided by the average insulin concentration in the final 60 minutes (I), which represents the amount of glucose metabolized per unit of insulin, was used as the primary measure of insulin sensitivity. […] Fasting serum glucose and homeostasis model assessment of insulin resistance (HOMA-IR), a widely used marker of insulin sensitivity, were assessed prior to the insulin clamp procedure at each of the inpatient study visits.
We then multiplied this value by 10^6 for ease of interpretation.

[3] = system: healthy volunteers; assay: Safety assessment in healthy volunteers; format: in vivo, human
Description: There were no serious adverse events. Three subjects developed transaminitis. In one subject (as previously mentioned), an AST elevation 3 times the upper limit of normal (Grade 2) after 3 days of IDV required study discontinuation. Three subjects were noted to have mild elevations in bilirubin. […] One patient reported an episode of vomiting and one subject reported dyspepsia after dose administration. All laboratory abnormalities and symptoms normalized after discontinuation of the study drugs. With the exception of the Grade 2 transaminites, all adverse events occurred during the co-administration of IDV and AG.

[4] = clinical; conditions: human, plasma, oral
[5] = system: healthy volunteers; assay: Fasting serum glucose, HOMA-IR and body weight at inpatient visits; format: in vivo, human
Method: Body composition, including fat-free mass (FFM), was assessed at baseline using dual x-ray absorptiometry (Hologic-QDR 4500W, Hologic Co, Bedford, MA, intra-subject CV < 2%). BMI was assessed during each inpatient admission and was calculated as the weight in kilograms/height in meters squared.
During the final 60 minutes of the insulin clamp procedure, samples were obtained at 10 minutes intervals to determine insulin concentrations. M divided by the average insulin concentration in the final 60 minutes (I), which represents the amount of glucose metabolized per unit of insulin, was used as the primary measure of insulin sensitivity. During the second and third inpatient visits, the morning dose of IDV (and AG for the third inpatient visit) was given immediately prior to the beginning of the insulin clamp procedure. Fasting serum glucose and homeostasis model assessment of insulin resistance (HOMA-IR), a widely used marker of insulin sensitivity, were assessed prior to the insulin clamp procedure at each of the inpatient study visits.

[6] = for Cmin: GM (95%CI)

## CC(C)(C)NC(=O)[C@@H]1CN(Cc2cccnc2)CCN1C[C@@H](O)C[C@@H](Cc1ccccc1)C(=O)N[C@H]1c2ccccc2C[C@H]1O [IDV, Indinavir]
[1]; healthy volunteers, IDV 800 mg q 8 hours
  decrease in insulin sensitivity: 17%
[1]; single dose of 1200 mg
  decrease in insulin sensitivity: 34%
[2]; after 3 days of IDV 800 mg q8h, n = 11, p = 0.03
  average decrease in insulin sensitivity (M/I) compared to baseline: 14.8 ± 5.9% and 15%
[2]; after 3 days of IDV, n = 11, mean ± SEM, baseline 0.113 ± 0.012
  insulin sensitivity (M/I), mean: 0.096 ± 0.014 mg/kg FFM/min per μU/ml of insulin
[2]; after 3 days of IDV, n = 11, mean ± SEM, baseline 7.73 ± 0.75, p = 0.005
  average glucose utilization (M): 6.32 ± 0.78 mg/kg FFM/min
[2]; post hoc, 10 subjects, IDV alone vs IDV + AG, p = 0.03
  M/I divided by the IDV AUC2–3 (insulin sensitivity per unit of plasma IDV): 60.9 ± 15.4 mg Glucose·10^6/kg FFM/min/μU/ml of insulin/ng·hr/mL IDV
[2]; post hoc, 10 subjects, IDV alone vs IDV plus AG, p = 0.05
  M (multiplied times 10^6) divided by the IDV AUC2–3: 4240.6 ± 1180.0 mg Glucose·10^6/kg FFM/min/ng·hr/mL IDV
[2]; second (IDV alone) vs third (IDV + AG) clamp, ten subjects, mean ± SEM, p = 0.62
  Glucose utilization (M), mean: 6.68 ± 0.76 mg/kg FFM/min
[2]; second (IDV alone) vs third (IDV + AG) clamp, ten subjects, mean ± SEM, p = 0.72
  insulin sensitivity (M/I), mean: 0.102 ± 0.013 mg/kg FFM/min per μU/ml of insulin
[3]; healthy volunteers
  tolerability: well tolerated
[3]; one subject, Grade 2, after 3 days of IDV, required study discontinuation
  AST elevation: 3 times the upper limit of normal
[4]
  AUC: 1.92 ± 0.483 µg·h/mL
[4]; 800 mg
  AUC: 2.35 ± 0.389 µg·h/mL
  Cmax: 5.62 µg/mL
  Tmax: 58.8 min
[5]; before vs after 2 weeks of AG, p = 0.65
  Fasting glucose: 93.0 ± 1.4 mg/dL
[5]; before vs after 2 weeks of AG, p = 0.95
  HOMA-IR: 1.4± 0.25
[5]; second admission (after 3 days IDV), baseline 1.34 ± 0.32, p = 0.97
  HOMA-IR: 1.34 ± 0.23
[5]; second admission (after 3 days IDV), baseline 92.4 ± 1.8, p = 0.27
  Fasting glucose: 95.0 ± 2.4 mg/dL
[6]; 10 subjects, p = 0.22
  difference in IDV AUC2–3 (IDV alone vs IDV and AG): 0.43 ± 0.33 µg·h/mL
[6]; IDV + AG (Day 22), n = 13
  Cmin: 62.78 (39.72–99.24) ng/mL
[6]; IDV alone (Day 7), n = 13
  Cmin: 61.97 (42.72–89.88) ng/mL
[6]; IDV with vs without AG, n = 13
  AUC0–8 Day 22/Day 7 Geometric Mean Ratio (90% CI): 0.89 (0.72–1.08)
  Cmax Day 22/Day 7 Geometric Mean Ratio (90% CI): 1.00 (0.77–1.29)
  tmax Day 22/Day 7 Geometric Mean Ratio (90% CI): 0.75 (0.53–1.06)
